Experiments:
[1] = Ratio of IC50 for inhibition of c-KIT/VEGFR2/B-Raf/RET/PDGFR in human RPMI-8226 cells assessed as reduction of cell viability to IC50 for inhibition of c-KIT/VEGFR2/B-Raf/RET/PDGFR in human RPMI-8226/BR resistant cells assessed as reduction of cell viability; conditions: condition multiple myeloma
[2] = Inhibition of c-KIT/VEGFR2/B-Raf/RET/PDGFR in Melphalan Resistant human RPMI-8226 cells assessed as reduction of cell growth incubated for 72 hrs by CellTiter 96 aqueous one solution cell proliferation assay; type: cell-based; conditions: Melphalan-resistant RPMI-8226 cell
[3] = Inhibition of c-KIT/VEGFR1/B-Raf/RET/PDGFR in human ANBL-6 cells assessed as reduction of cell growth incubated for 72 hrs by CellTiter 96 aqueous one solution cell proliferation assay; type: cell-based; conditions: ANBL-6, 72 h
[4] = Ratio of IC50 for inhibition of c-KIT/VEGFR1/B-Raf/RET/PDGFR in human RPMI-8226 cells assessed as reduction of cell viability to IC50 for inhibition of c-KIT/VEGFR1/B-Raf/RET/PDGFR in human melphalan-resistant RPMI-8226 cells assessed as reduction of cell viability; conditions: time 72 hrs; condition multiple myeloma
[5] = Ratio of IC50 for inhibition of c-KIT/VEGFR2/B-Raf/RET/PDGFR in human RPMI-8226 cells assessed as reduction of cell viability to IC50 for inhibition of c-KIT/VEGFR2/B-Raf/RET/PDGFR in human melphalan-resistant RPMI-8226 cells assessed as reduction of cell viability; conditions: time 72 hrs; condition multiple myeloma
[6] = Inhibition of c-KIT/VEGFR1/B-Raf/RET/PDGFR in human RPMI-8226 cells assessed as reduction of cell growth incubated for 72 hrs by CellTiter 96 aqueous one solution cell proliferation assay; type: cell-based; conditions: RPMI-8226, 72 h
[7] = Ratio of IC50 for inhibition of c-KIT/VEGFR2/B-Raf/RET/PDGFR in human ANBL6 cells assessed as reduction of cell viability to IC50 for inhibition of c-KIT/VEGFR2/B-Raf/RET/PDGFR in human ANBL6/BR resistant cells assessed as reduction of cell viability; conditions: condition multiple myeloma
[8] = Inhibition of c-KIT/VEGFR2/B-Raf/RET/PDGFR in human U-266 cells assessed as reduction of cell growth incubated for 72 hrs by CellTiter 96 aqueous one solution cell proliferation assay; type: cell-based; conditions: U-266, 72 h
[9] = Ratio of IC50 for inhibition of c-KIT/VEGFR1/B-Raf/RET/PDGFR in human ANBL6 cells assessed as reduction of cell viability to IC50 for inhibition of c-KIT/VEGFR1/B-Raf/RET/PDGFR in human ANBL6/BR resistant cells assessed as reduction of cell viability; conditions: condition multiple myeloma
[10] = Inhibition of c-KIT/VEGFR1/B-Raf/RET/PDGFR in human bortezomib-resistant ANBL6 cells assessed as reduction of cell growth incubated for 72 hrs by CellTiter 96 aqueous one solution cell proliferation assay; type: cell-based
[11] = Ratio of IC50 for inhibition of c-KIT/VEGFR1/B-Raf/RET/PDGFR in human RPMI-8226 cells assessed as reduction of cell viability to IC50 for inhibition of c-KIT/VEGFR1/B-Raf/RET/PDGFR in human RPMI-8226/BR resistant cells assessed as reduction of cell viability; conditions: condition multiple myeloma
[12] = Inhibition of c-KIT/VEGFR1/B-Raf/RET/PDGFR in Melphalan Resistant human RPMI-8226 cells assessed as reduction of cell growth incubated for 72 hrs by CellTiter 96 aqueous one solution cell proliferation assay; type: cell-based; conditions: Melphalan-resistant RPMI-8226 cell
[13] = Inhibition of c-KIT/VEGFR2/B-Raf/RET/PDGFR in human RPMI-8226 cells assessed as reduction of cell growth incubated for 72 hrs by CellTiter 96 aqueous one solution cell proliferation assay; type: cell-based; conditions: RPMI-8226, 72 h
[14] = Inhibition of c-KIT/VEGFR1/B-Raf/RET/PDGFR in bortezomib Resistant human RPMI-8226 cells assessed as reduction of cell growth incubated for 72 hrs by CellTiter 96 aqueous one solution cell proliferation assay; type: cell-based; conditions: Bortezomib-resistant RPMI-8226, 72 h
[15] = Inhibition of c-KIT/VEGFR2/B-Raf/RET/PDGFR in human bortezomib-resistant ANBL6 cells assessed as reduction of cell growth incubated for 72 hrs by CellTiter 96 aqueous one solution cell proliferation assay; type: cell-based
[16] = Inhibition of c-KIT/VEGFR2/B-Raf/RET/PDGFR in human ANBL-6 cells assessed as reduction of cell growth incubated for 72 hrs by CellTiter 96 aqueous one solution cell proliferation assay; type: cell-based; conditions: ANBL-6, 72 h
[17] = Inhibition of c-KIT/VEGFR1/B-Raf/RET/PDGFR in human U-266 cells assessed as reduction of cell growth incubated for 72 hrs by CellTiter 96 aqueous one solution cell proliferation assay; type: cell-based; conditions: U-266, 72 h
[18] = Inhibition of c-KIT/VEGFR2/B-Raf/RET/PDGFR in bortezomib Resistant human RPMI-8226 cells assessed as reduction of cell growth incubated for 72 hrs by CellTiter 96 aqueous one solution cell proliferation assay; type: cell-based; conditions: Bortezomib-resistant RPMI-8226, 72 h
[19] = Inhibition of CAMKK in human ANBL-6 cells assessed as reduction of cell growth incubated for 72 hrs by CellTiter 96 aqueous one solution cell proliferation assay; type: cell-based; conditions: ANBL-6, 72 h
[20] = Inhibition of CAMKK in human U-266 cells assessed as reduction of cell growth incubated for 72 hrs by CellTiter 96 aqueous one solution cell proliferation assay; type: cell-based; conditions: U-266, 72 h
[21] = Inhibition of CAMKK in Melphalan Resistant human RPMI-8226 cells assessed as reduction of cell growth incubated for 72 hrs by CellTiter 96 aqueous one solution cell proliferation assay; type: cell-based; conditions: Melphalan-resistant RPMI-8226 cell
[22] = Ratio of IC50 for inhibition of CAMKK in human RPMI-8226 cells assessed as reduction of cell viability to IC50 for inhibition of CAMKK in human melphalan-resistant RPMI-8226 cells assessed as reduction of cell viability; conditions: time 72 hrs; condition multiple myeloma
[23] = Inhibition of CAMKK in human RPMI-8226 cells assessed as reduction of cell growth incubated for 72 hrs by CellTiter 96 aqueous one solution cell proliferation assay; type: cell-based; conditions: RPMI-8226, 72 h
[24] = Inhibition of CAMKK in human bortezomib-resistant ANBL6 cells assessed as reduction of cell growth incubated for 72 hrs by CellTiter 96 aqueous one solution cell proliferation assay; type: cell-based
[25] = Inhibition of CAMKK in bortezomib Resistant human RPMI-8226 cells assessed as reduction of cell growth incubated for 72 hrs by CellTiter 96 aqueous one solution cell proliferation assay; type: cell-based; conditions: Bortezomib-resistant RPMI-8226, 72 h
[26] = Ratio of IC50 for inhibition of CAMKK in human RPMI-8226 cells assessed as reduction of cell viability to IC50 for inhibition of CAMKK in human RPMI-8226/BR resistant cells assessed as reduction of cell viability; conditions: condition multiple myeloma
[27] = Ratio of IC50 for inhibition of CAMKK in human ANBL6 cells assessed as reduction of cell viability to IC50 for inhibition of CAMKK in human ANBL6/BR resistant cells assessed as reduction of cell viability; conditions: condition multiple myeloma
[28] = Inhibition of B-RAFV600E/pERK in human ANBL-6 cells assessed as reduction of cell growth incubated for 72 hrs by CellTiter 96 aqueous one solution cell proliferation assay; type: cell-based; conditions: ANBL-6, 72 h
[29] = Ratio of IC50 for inhibition of B-RAFV600E/pERK in human RPMI-8226 cells assessed as reduction of cell viability to IC50 for inhibition of B-RAFV600E/pERK in human RPMI-8226/BR resistant cells assessed as reduction of cell viability; conditions: condition multiple myeloma
[30] = Ratio of IC50 for inhibition of B-RAFV600E/pERK in human ANBL6 cells assessed as reduction of cell viability to IC50 for inhibition of B-RAFV600E/pERK in human ANBL6/BR resistant cells assessed as reduction of cell viability; conditions: condition multiple myeloma
[31] = Inhibition of B-RAFV600E/pERK in human bortezomib-resistant ANBL6 cells assessed as reduction of cell growth incubated for 72 hrs by CellTiter 96 aqueous one solution cell proliferation assay; type: cell-based
[32] = Inhibition of B-RAFV600E/pERK in Melphalan Resistant human RPMI-8226 cells assessed as reduction of cell growth incubated for 72 hrs by CellTiter 96 aqueous one solution cell proliferation assay; type: cell-based; conditions: Melphalan-resistant RPMI-8226 cell
[33] = Inhibition of B-RAFV600E/pERK in human U-266 cells assessed as reduction of cell growth incubated for 72 hrs by CellTiter 96 aqueous one solution cell proliferation assay; type: cell-based; conditions: U-266, 72 h
[34] = Inhibition of B-RAFV600E/pERK in bortezomib Resistant human RPMI-8226 cells assessed as reduction of cell growth incubated for 72 hrs by CellTiter 96 aqueous one solution cell proliferation assay; type: cell-based; conditions: Bortezomib-resistant RPMI-8226, 72 h
[35] = Inhibition of B-RAF-V600E/pERK in human RPMI-8226 cells assessed as reduction of cell growth incubated for 72 hrs by CellTiter 96 aqueous one solution cell proliferation assay; type: cell-based; conditions: RPMI-8226, 72 h
[36] = Ratio of IC50 for inhibition of B-RAFV600E/pERK in human RPMI-8226 cells assessed as reduction of cell viability to IC50 for inhibition of B-RAFV600E/pERK in human melphalan-resistant RPMI-8226 cells assessed as reduction of cell viability; conditions: time 72 hrs; condition multiple myeloma

Q: What does the source list for `CNC(=O)c1cc(Oc2ccc(NC(=O)Nc3ccc(Cl)c(C(F)(F)F)c3)c(F)c2)ccn1` [REGORAFENIB]?
A: Ratio IC50 [1]: 2.45; IC50 [2]: 3.55 µM; IC50 [3]: 9.12 µM; Ratio IC50 [4]: 1.1; Ratio IC50 [5]: 1.1; IC50 [6]: 4.07 µM; Ratio IC50 [7]: 1.48; IC50 [8]: 10 µM; Ratio IC50 [9]: 1.48; IC50 [10]: 6.17 µM; Ratio IC50 [11]: 2.45; IC50 [12]: 3.55 µM; IC50 [13]: 4.07 µM; IC50 [14]: 2.76 µM; IC50 [15]: 6.17 µM; IC50 [16]: 9.12 µM; IC50 [17]: 10 µM; IC50 [18]: 2.76 µM

Q: Which results are given for `O=C(O)c1ccc2c3c1cccc3c(=O)n1c3ccccc3nc21`?
A: IC50 [19]: 10 µM; IC50 [20]: 10 µM; IC50 [21]: 10 µM; Ratio IC50 [22]: 1; IC50 [23]: 10 µM; IC50 [24]: 10 µM; IC50 [25]: 10 µM; Ratio IC50 [26]: 1; Ratio IC50 [27]: 1

Q: For `OCCn1cc(-c2ccc3c(c2)CC/C3=N\O)c(-c2ccncc2)n1`, which IC50 [28] is on record?
A: 10 µM

Q: What about the “Ratio IC50” value [29] of the same compound?
A: 1

Q: What about the “Ratio IC50” value [30] of the same compound?
A: 1

Q: What about the IC50 [31] of the same compound?
A: 10 µM

Q: And the IC50 [32]?
A: 10 µM

Q: What about the IC50 [33] of the same compound?
A: 10 µM

Q: What about the IC50 [34] of the same compound?
A: 10 µM

Q: And the IC50 [35]?
A: 10 µM

Q: What about the “Ratio IC50” value [36] of the same compound?
A: 1
